# In ChEMBL document CHEMBL5104196, “Discovery of Novel, Potent, and Selective Small-Molecule Menin-Mixed Lineage Leukemia Interaction Inhibitors through Attempting Introduction of Hydrophilic Groups” (J Med Chem, 2022):
# Activity calls are given as the source filed them. The rule behind the calls is not given here.
# Columns and labels:
# [1] = Metabolic stability in Beagle dog liver microsome assessed as half life measured upto 60 min by UPLC-MS/MS analysis; type: ADME, Canis lupus familiaris; details: liver microsomes
# [2] = Solubility of compound in phosphate buffer at pH 7.4 by spectrophotometric analysis; type: physicochemical
# [3] = Tmax in Sprague-Dawley rat at 15 mg/kg, po; type: ADME, organism-based; details: in vivo
# Homo sapiens = species on record: Homo sapiens; assay: Inhibition of TKL (unknown origin) at 1 uM in presence of ATP at Km concentration by Mobility shift assay relative to control
# [4] = Half life in Sprague-Dawley rat at 5 mg/kg, iv; type: ADME, organism-based; details: in vivo
# [5] = Metabolic stability in Crab eating monkey liver microsome assessed as compound remaining measured after 60 min by UPLC-MS/MS analysis; type: ADME, Macaca fascicularis; details: cynomolgus monkey, liver microsomes, read-out: Stability
# [6] = Total clearance in Sprague-Dawley rat at 15 mg/kg, po; type: ADME, organism-based; details: in vivo
# MV4-11 [7] = assay: Induction of cell cycle arrest in human MV4-11 cells assessed as accumulation at G2/M phase at 0.1 to 10 uM incubated for 24 hrs by PI/RNase staining based flow cytometry analysis; type: functional; details: dose 0.1-10 µM
# [8] = Metabolic stability in Beagle dog liver assessed as intrinsic clearance measured upto 60 min by UPLC-MS/MS analysis; type: ADME, tissue-based, Canis lupus familiaris; details: read-out: CLH
# [9] = Metabolic stability in Sprague-Dawley rat liver microsome assessed as intrinsic clearance measured upto 60 min by UPLC-MS/MS analysis; type: ADME; details: microsomes, 1 h
# [10] = Metabolic stability in human liver microsome assessed as half life measured upto 60 min by UPLC-MS/MS analysis; type: ADME; details: liver microsomes
# [11] = Metabolic stability in Crab eating monkey liver microsome assessed as intrinsic clearance measured upto 60 min by UPLC-MS/MS analysis; type: ADME, Macaca fascicularis; details: cynomolgus monkey, microsomes, 1 h
# [12] = Oral bioavailability in Sprague-Dawley rat at 15 mg/kg; type: ADME, organism-based; details: in vivo
# MV4-11 [13] = assay: Antiproliferative activity against human MV4-11 cells harboring MLL-AF4 assessed as cell growth inhibition measured for 72 hrs by MTT assay; type: functional, cell-based; details: MV4-11, 72 h
# MV4-11 [14] = assay: Antitumor activity against human MV4-11 cells xenografted in BALB/c nude mouse assessed as tumor growth inhibition at 30 mg/kg, po administered every second day for 16 days by calipers analysis; type: functional; details: MV4-11, 384 h, time 16 day, read-out: TGI
structure (smiles),measurement,setting,value
CN(C)CCOc1ccc2ncnc(NC3CCN(CC4CN(c5ccc(S(=O)(=O)C6CC6)cc5)C4)CC3)c2n1,half-life,[1],1.7 h
same,solubility,[2],398 µg/mL
same,Tmax,[3],7.3 h
same,inhibition,Homo sapiens,< 25%
same,half-life,[4],17.5 h
same,remaining at 1 h,[5],52%
same,CL/F,[6],179 mL/min/kg
same,Activity,MV4-11 [7],Active
same,CLint scaled,[8],20 mL/min/kg
same,CLint,[9],9.7 µL/min/mg
same,half-life,[10],3.2 h
same,CLint,[11],22 µL/min/mg
same,bioavailability,[12],16.9%
same,IC50,MV4-11 [13],300 nM
same,inhibition in vivo at 30 mg/kg,MV4-11 [14],97%
